Data reported in paper PMC6472001, “Phenolic Compounds from Humulus lupulus as Natural Antimicrobial Products: New Weapons in the Fight against Methicillin Resistant Staphylococcus aureus, Leishmania mexicana and Trypanosoma brucei Strains” (Molecules, 2019).
In brackets after ≈: the same amount, converted by molar mass. Where two headings read alike, the source gives them in different places.

What was measured:
S. aureus T28.1 biofilm = test: Anti-biofilm: biofilm formation on synthetic bone substitute; assay type: cell-based, Staphylococcus aureus; details: at MIC
Method: β-Tricalcium phosphate discs (Cerasorb®, Curasan, Germany) were used as bone substitute. Non-glucose enriched BHI medium was used here, because the bacterial glucose metabolism causes an acidification of the culture medium which leads to the disintegration of the discs. Discs were introduced in a 24-well plate: 1.8 mL of BHI media were added with 0.1 mL of product in DMSO (5%) and 0.1 mL of a 10^5 CFU/mL bacterial suspension. Final concentrations of hop phenolic compounds were from MIC/4 to 4 × MIC. After 24 h at 37 °C, counts were performed in two steps. First, planktonic bacteria were counted from 100 µL of the culture supernatant by plating tenfold dilutions on MHA. Then, bacteria adhering to the discs were counted: discs were removed and washed with a CR solution, then, 10 mL of CR were added to each disk and treated 1 min by sonication (35 kHz) and 30 s by vortex. The obtained suspension was enumerated as previously. The detection threshold was also 1 log(CFU/mL).

[1] = test system: Leishmania mexicana mexicana (Lmm); test: Antiparasitic activity, broth microdilution; assay type: cell-based
Method: (§1) Tbb were cultivated in HMI9 medium containing 10% heat-inactivated foetal bovine serum (FBS) (Sigma-Aldrich), […] L-cysteine and […] beta-mercaptoethanol at 37 °C (CO2 5%). Lmm (MHOM/BZ/84/BEL46) were cultivated in SDM-79 medium (Gibco) supplemented with 15% heat-inactivated FBS (Sigma-Aldrich) and 5 mg/L hemin at 28 °C (CO2 5%). Antiparasitic bioassays were performed as described by Bero et al.. Suramin (SUR) and pentamidine (PEN) were used as positive controls respectively. The hops compounds (xanthohumol, desmethylxanthohumol, humulone, lupulone) concentration that inhibits 50% of the cell viability (IC50) was determined using GraphPad Prism, version 5.01 (GraphPad Software, San Diego, CA, USA).

[2] = test system: Trypanosoma brucei brucei (Tbb); test: Antiparasitic activity, broth microdilution; assay type: cell-based
Method: as §1

[3] = test system: J774 cells (monocyte macrophage); test: Cytotoxicity / antiproliferative effect; assay type: cell-based, mouse
Method: (§2) Several human cell lines were used for the cytotoxic bioassays: non-cancer lung fibroblasts (WI-38), hepatocellular carcinoma (Hep-G2), osteosarcoma (MG-63) and the mouse monocyte macrophage J774. Cells were seeded into wells of a 96-well microplate in a Gibco™ Dulbecco’s modified eagles medium (DMEM), except for MG-63 which were cultivated in a minimum essential medium (MEM) (ThermoFisher Scientific, Illkirch-Graffenstaden, France). Both media were enriched with 10% FBS (ThermoFisher Scientific, France) and some antibiotics (mixture penicillin/streptomycin 100 UI/mL, Sigma Aldrich). After one or two days at 37 °C (5% of CO2), wells were emptied by suction. Cells were then treated with hops compounds (xanthohumol, desmethylxanthohumol, humulone, lupulone) in DMSO at 0.2% in the culture medium, to obtain a final volume of 100 µL in wells (negative control: 0.2% DMSO). Camptothecin was used as a positive control. After 48 to 72 h exposure, culture medium was replaced by 10% of Alamar blue or 3-(4,5-dimethylthiazol-2-yl)-2,5-diphenyltetrazolium bromide (MTT) in the medium (ThermoFisher Scientific®, Illkirch, France) and plates were incubated the time necessary to the reaction. Results were measured respectively by fluorescence (excitation 530 nm and emission 590 nm) or by optical density at 550 nm. The IC50 of each product was determined using GraphPad Prism (version 5.01).

S. aureus T28.1 = test: Kill curves; assay type: cell-based, Staphylococcus aureus
Method: This experiment allowed following in time the effect of the product on a growing bacterial population, highlighting the bactericidal or bacteriostatic effect. Stock solutions of xanthohumol, desmethylxanthohumol and lupulone were prepared in DMSO 20 times more concentrated than the desired final concentrations (MIC/4 to 4xMIC). An aliquot of 0.5 mL of purified product in DMSO was added to 8.5 mL of brain heart infusion (BHI) medium (Oxoid, UK). 1 mL of bacterial suspension at 10^5 CFU/mL was then introduced to the culture tube. A 5% DMSO control served as a negative control and was performed at each test. Culture tubes were incubated at 37 °C for 24 h. Counts were made every 2 h until 8 h and at 24 h by plating aliquots of serial tenfold dilutions on MHA. The determined bacterial concentrations were then converted into log(CFU/mL) and were expressed as a function of time. The detection threshold of this method was 10 CFU/mL and 1 log(CFU/mL) on graphics.

MRSA strains = test: Broth microdilution MIC, range over strains; assay type: cell-based; details: Staphylococcus aureus, read-out: MICs towards MRSA strains
Method: (§3) The protocol employed was inspired by Abedini et al. with some modifications. Products were solubilized in DMSO and serially diluted two-fold in MH medium. A bacterial suspension at 10^5 CFU/mL was added to obtain a final volume of 200 µL. Final phenolic product concentrations in wells ranged from 625 to 2.4 µg/mL (exception for lupulone for which dilutions were continued until 0.3 µg/mL). […] Plates were incubated overnight with stirring (60 rpm) at 37 °C.

[4] = test system: selected S. aureus strains; test: Broth microdilution MIC, range over strains; assay type: cell-based; details: Staphylococcus aureus; range over MRSA and MSSA strains of Table 3; read-out: MIC against selected S. aureus strains
Method: as §3

[5] = test system: MG-63 cells (osteosarcoma); test: cells; assay type: cell-based, human
Method: as §2

Leishmania amazonensis = test system: Leishmania amazonensis; parameters: method as in PMID 27938439; details: cited from earlier work
[6] = test system: human hepatocellular carcinoma; parameters: method as in PMID 18814205; details: cited from earlier work
mice = test system: mice; parameters: method as in PMID 20427021; details: approximately 1000 mg/kg of body weight of mice; cited from earlier work
humans = test system: humans; parameters: method as in PMID 24038952; details: up to 180 mg in humans for a short intake; cited from earlier work
lung cell line = test system: lung cell line; parameters: method as in PMID 26664015; details: cited from earlier work
biofilm formation = test system: biofilm formation; parameters: method as in PMID 24175280; details: at the MIC; cited from earlier work
Plasmodium falciparum = test system: Plasmodium falciparum; parameters: method as in PMID 15824094; details: cited from earlier work
[7] = Leishmania mexicana, read-out: IC50 (converted)
[8] = Leishmania mexicana, value in parentheses, read-out: IC50 (converted)
[9] = Trypanosoma brucei, read-out: IC50 (converted)
[10] = Trypanosoma brucei, value in parentheses, read-out: IC50 (converted)
[11] = Mus musculus, read-out: IC50 ± SD
[12] = Mus musculus, value in parentheses, read-out: IC50 (converted)
[13] = Homo sapiens, MG-63, read-out: IC50 ± SD
[14] = Homo sapiens, MG-63, value in parentheses, read-out: IC50 (converted)
[15] = value in parentheses, read-out: IC50 (converted)

CC(C)=CCc1c(O)cc(O)c(C(=O)/C=C/c2ccc(O)cc2)c1O [DMX, desmethylxanthohumol]
Biofilm formation on bone substitute discs (S. aureus T28.1 biofilm): significant decrease
IC50 [1, 7]: 26.2 ± 1.8 µg/mL
IC50 [1, 8]: 77 µM
IC50 [2, 9]: 7.7 ± 0.6 µg/mL
IC50 [2, 10]: 22.6 µM
IC50 [3, 11]: 9.7 ± 1 µg/mL
IC50 [3, 12]: 28.5 µM
Bacterial population reached (detection threshold) (S. aureus T28.1; 2 × MIC, after 24 h): 1 log(CFU/mL)
MIC (MRSA strains): 19.5 to 39 µg/mL (≈ 57.3 to 115 µM)
MIC [4]: 19.5 to 39 µg/mL (≈ 57.3 to 115 µM)
IC50 [5, 13]: 39.5 ± 3.3 µg/mL
IC50 [5, 14]: 116 µM

COc1cc(O)c(CC=C(C)C)c(O)c1C(=O)/C=C/c1ccc(O)cc1 [XN, xanthohumol]
IC50 (Leishmania amazonensis): in the µM range
IC50 [6]: about 75 µg/mL
Safety in vivo (mice): good safety
Safety in vivo (humans): good safety
IC50 (lung cell line): ~100 µg/mL (≈ 282 µM)
IC50 [1, 7]: 6.1 ± 3.1 µg/mL
IC50 [1, 8]: 17.2 µM
IC50 [2, 9]: 2.4 ± 0.2 µg/mL
IC50 [2, 10]: 6.8 µM
IC50 [3, 11]: 3.4 ± 0.5 µg/mL
IC50 [3, 12]: 9.6 µM
Decrease of the bacterial population (S. aureus T28.1; 2xMIC, first 4 h): around 3 log(CFU/mL)
Decrease of the bacterial population (S. aureus T28.1; MIC/2, first 6 h): 0.5 log(CFU/mL)
Decrease of the bacterial population (S. aureus T28.1; at the MIC, during 24 h): 2 log(CFU/mL)
MIC (MRSA strains): 9.8 to 19.5 µg/mL (≈ 27.7 to 55 µM)
MIC [4]: 9.8 to 19.5 µg/mL (≈ 27.7 to 55 µM)
Inhibition of biofilm formation (biofilm formation): 86.5%
IC50 (Plasmodium falciparum): in the µM range
IC50 [5, 13]: 10.4 ± 2.6 µg/mL
IC50 [5, 14]: 29.4 µM

lupulone
Biofilm formation on bone substitute discs (S. aureus T28.1 biofilm): significant decrease
IC50 [1]: 4.7 ± 0.1 µg/mL
IC50 [1, 15]: 11.3 µM
IC50 [2]: 0.9 ± 0.0 µg/mL
IC50 [2, 15]: 2.2 µM
IC50 ± SD [3]: 1.5 ± 0.1 µg/mL
IC50 [3, 15]: 3.6 µM
Reduction between the control and 2 × MIC (S. aureus T28.1; 2 × MIC): about 3 log(CFU/mL)
Kill curve effect at 4 × MIC (S. aureus T28.1; 4 × MIC): slightly decreased the bacterial population
cell viability [5]: ~100%
IC50 ± SD ([5]; MG-63): 4.3 ± 0.4 µg/mL
IC50 ([5]; MG-63, value in parentheses, read-out: IC50 (converted)): 10.4 µM
selectivity index ([5]; antibacterial activity compared to cytotoxicity against MG-63): > 4
